These results are taken from patent US11897862B2 (Gilead Sciences, Inc., priority 2022, dated 2024).

Each structure is given as a SMILES string.

In general, Dmax refers to the greatest extent of degradation seen.

Assay type in all cases: cell-based
The target of assay [1] is T1, IKZF2 (Homo sapiens, UniProt Q96SW2+Q9UKS7). Put plainly: Human whole blood IKZF2 degradation (flow cytometry, CD4/CD25/Foxp3+ Treg cells). Set-up: endogenous in cells. Particulars: 24 hrs incubation, IKZF2 MFI in CD4/CD25/Foxp3+ Treg cells, flow cytometry; for DC50: read-out: IKZF2 EC50. On the procedure: In vitro IKZF2 potency was assessed in human whole blood using a fluorescence activated cell sorting assay. 50 μL of freshly collected blood from healthy human volunteers was incubated with Immunocult CD3/CD28 activator (Stemcell Technologies) and solution of testing compounds (serially-diluted) for 24 hrs hours at 37° C. in 384 well plates. The treated red blood cells were removed by adding lysis buffer (BD cat #558049) then the cells were fixed, permeabilized, and stained with anti-CD4 (BD cat #564419), anti-Foxp3 (Invitrogen cat #48-4777-42), anti-IKZF1 (Cell Signaling Tech. cat #33462S), and anti-IKZF2(Cell Signaling Tech. cat #65432S) antibodies. The median fluorescent intensity (MFI) of IKZF2 signal from CD4/CD25/Foxp3+ Treg cells and MFI of IKZF1 signal from CD4+ T cells were quantified in the same samples by flow cytometry using an Attune instrument. EC50 and Dmax of each compound was determined by plotting the MFI and DMSO treated wells were used as control. Asterisks (*) indicate examples for which data represents an average of n≥3 repeat experiments.
Target sequence in this assay (Q9UKS7 whole entry): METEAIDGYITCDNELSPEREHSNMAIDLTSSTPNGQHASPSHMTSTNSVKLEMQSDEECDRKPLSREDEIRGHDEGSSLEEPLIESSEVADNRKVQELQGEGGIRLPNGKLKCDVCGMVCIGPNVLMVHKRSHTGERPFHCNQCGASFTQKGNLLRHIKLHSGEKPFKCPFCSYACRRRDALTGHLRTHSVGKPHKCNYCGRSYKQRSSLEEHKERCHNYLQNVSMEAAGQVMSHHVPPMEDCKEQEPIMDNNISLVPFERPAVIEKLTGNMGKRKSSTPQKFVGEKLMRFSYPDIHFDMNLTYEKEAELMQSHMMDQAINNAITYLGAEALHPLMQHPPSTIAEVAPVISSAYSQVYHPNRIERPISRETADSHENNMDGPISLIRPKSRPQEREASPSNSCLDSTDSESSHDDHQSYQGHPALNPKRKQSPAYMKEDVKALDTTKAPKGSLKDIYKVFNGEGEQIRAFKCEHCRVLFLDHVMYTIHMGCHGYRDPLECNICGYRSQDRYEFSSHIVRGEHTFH
Target sequence in this assay (Q96SW2 whole entry): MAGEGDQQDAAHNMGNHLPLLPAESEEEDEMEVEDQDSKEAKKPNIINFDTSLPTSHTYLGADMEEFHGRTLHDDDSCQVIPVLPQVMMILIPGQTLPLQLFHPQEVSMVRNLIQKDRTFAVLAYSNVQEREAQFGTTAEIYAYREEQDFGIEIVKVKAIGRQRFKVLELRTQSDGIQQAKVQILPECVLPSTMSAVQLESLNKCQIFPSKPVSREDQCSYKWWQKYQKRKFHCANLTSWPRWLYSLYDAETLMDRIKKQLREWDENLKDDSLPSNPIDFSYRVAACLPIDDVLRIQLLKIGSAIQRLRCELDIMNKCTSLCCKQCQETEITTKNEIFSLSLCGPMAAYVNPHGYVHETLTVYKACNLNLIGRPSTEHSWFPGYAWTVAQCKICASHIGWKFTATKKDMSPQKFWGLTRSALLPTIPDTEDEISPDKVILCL
Target sequence in this assay (Q16531 whole entry partner): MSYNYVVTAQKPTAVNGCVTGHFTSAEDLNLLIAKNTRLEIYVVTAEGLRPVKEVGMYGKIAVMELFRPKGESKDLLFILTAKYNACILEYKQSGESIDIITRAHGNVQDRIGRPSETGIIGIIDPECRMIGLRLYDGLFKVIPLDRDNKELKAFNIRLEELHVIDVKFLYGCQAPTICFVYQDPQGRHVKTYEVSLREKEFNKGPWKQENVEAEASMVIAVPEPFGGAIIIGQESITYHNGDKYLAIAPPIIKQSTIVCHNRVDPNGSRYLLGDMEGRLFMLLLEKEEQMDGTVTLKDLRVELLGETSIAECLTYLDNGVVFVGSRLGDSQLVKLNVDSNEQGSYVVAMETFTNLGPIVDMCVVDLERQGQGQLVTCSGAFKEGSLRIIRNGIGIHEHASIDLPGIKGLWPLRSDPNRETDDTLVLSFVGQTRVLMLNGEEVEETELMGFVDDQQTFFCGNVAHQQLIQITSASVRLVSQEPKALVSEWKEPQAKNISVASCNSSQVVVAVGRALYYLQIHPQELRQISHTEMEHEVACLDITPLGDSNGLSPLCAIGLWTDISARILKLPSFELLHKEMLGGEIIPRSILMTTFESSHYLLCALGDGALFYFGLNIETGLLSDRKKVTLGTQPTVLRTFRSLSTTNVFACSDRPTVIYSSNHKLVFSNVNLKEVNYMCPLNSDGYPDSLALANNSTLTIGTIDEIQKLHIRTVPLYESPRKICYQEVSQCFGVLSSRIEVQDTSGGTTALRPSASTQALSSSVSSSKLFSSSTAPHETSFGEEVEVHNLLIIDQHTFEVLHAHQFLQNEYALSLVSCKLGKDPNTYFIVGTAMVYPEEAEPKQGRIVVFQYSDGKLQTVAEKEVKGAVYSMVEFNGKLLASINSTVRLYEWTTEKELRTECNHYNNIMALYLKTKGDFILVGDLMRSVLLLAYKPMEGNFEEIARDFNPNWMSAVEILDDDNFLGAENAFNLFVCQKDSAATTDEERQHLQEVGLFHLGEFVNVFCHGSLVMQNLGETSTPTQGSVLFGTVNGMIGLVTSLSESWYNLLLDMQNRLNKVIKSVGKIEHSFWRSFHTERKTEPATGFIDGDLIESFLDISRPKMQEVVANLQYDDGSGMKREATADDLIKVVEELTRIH
(Flow cytometry measures light scatter and fluorescence of single cells or particles in a stream.)

A further assay deals with T2, IKZF1 (Homo sapiens, UniProt Q13422+Q96SW2).
T2 construct: expressed in transfected cells
T2 sequence (Q13422 whole entry): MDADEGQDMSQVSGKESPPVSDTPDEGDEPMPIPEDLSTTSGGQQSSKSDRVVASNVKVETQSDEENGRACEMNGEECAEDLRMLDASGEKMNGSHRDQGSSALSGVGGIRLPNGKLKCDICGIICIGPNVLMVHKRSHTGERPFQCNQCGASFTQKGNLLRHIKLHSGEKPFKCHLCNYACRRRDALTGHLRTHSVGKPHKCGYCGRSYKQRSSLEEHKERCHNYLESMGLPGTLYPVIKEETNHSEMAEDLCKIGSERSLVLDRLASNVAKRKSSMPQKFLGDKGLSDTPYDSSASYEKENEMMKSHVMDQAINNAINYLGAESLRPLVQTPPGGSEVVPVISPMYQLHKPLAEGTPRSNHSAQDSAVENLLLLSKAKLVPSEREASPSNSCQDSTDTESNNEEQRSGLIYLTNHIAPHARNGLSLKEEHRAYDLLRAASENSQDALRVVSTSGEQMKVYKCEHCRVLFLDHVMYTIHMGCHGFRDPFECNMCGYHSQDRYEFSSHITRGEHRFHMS
T2 sequence (Q96SW2 whole entry): as the sequence (Q96SW2 whole entry) above
T2 sequence (Q16531 whole entry partner): as the sequence (Q16531 whole entry partner) above
Put plainly: HEK293 HiBiT in vitro degradation of IKZF1. Particulars: for Dmax: HEK293, HEK293 HiBiT; for Dmax / IKZF1 Dmax: maximum degradation at the highest concentration tested; for DC50 / IKZF1 Dmax: HEK293 HiBiT; for DC50: 18-24 hr incubation, normalized to DMSO control, read-out: IKZF1 EC50. The procedure, abridged: (§1)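 Flp-In T-REx HEK293 pools stably expressing C-terminal HiBiT-tagged IKZF1, IKZF2 or SALL4 (single-copy, Tet-On), induced overnight with […] doxycycline. Cells exposed to serially diluted compounds for 18-24 hr at 37° C. Nano-Glo lytic luminescence gave EC50 and Dmax.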

Assay [2] has as its target T1, IKZF2. In words: HEK293 HiBiT in vitro degradation of IKZF2. Set-up: expressed in transfected cells. The following applies: for DC50 / IKZF2 Dmax: HEK293 HiBiT; for DC50: 18-24 hr incubation, normalized to DMSO control, read-out: IKZF2 EC50; for IKZF2 Dmax / Dmax: maximum degradation at the highest concentration tested; for Dmax: HEK293, HEK293 HiBiT. The procedure, abridged:
as §1
Target sequence in this assay (Q9UKS7 1-500 isoform Q9UKS7-2): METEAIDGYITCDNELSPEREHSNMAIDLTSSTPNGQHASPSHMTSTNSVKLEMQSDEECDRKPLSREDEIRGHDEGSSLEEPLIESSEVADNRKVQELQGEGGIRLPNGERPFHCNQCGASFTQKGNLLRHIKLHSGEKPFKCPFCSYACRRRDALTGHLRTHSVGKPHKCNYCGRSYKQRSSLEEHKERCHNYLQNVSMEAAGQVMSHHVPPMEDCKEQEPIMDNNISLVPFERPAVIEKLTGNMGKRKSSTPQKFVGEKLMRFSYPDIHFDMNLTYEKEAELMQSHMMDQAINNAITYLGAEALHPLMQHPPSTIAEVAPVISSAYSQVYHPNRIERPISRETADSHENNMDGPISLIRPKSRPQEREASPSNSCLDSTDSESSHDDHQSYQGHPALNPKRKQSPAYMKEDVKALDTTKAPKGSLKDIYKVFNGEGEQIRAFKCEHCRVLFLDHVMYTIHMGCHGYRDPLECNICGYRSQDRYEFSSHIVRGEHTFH
Target sequence in this assay (Q96SW2 whole entry): as the sequence (Q96SW2 whole entry) above
Target sequence in this assay (Q16531 whole entry partner): as the sequence (Q16531 whole entry partner) above
Background: The HiBiT peptide binds its large partner to form an active luciferase.

`CC(N[C@H]1CCCC[C@@H]1Cc1ccc2c(c1)CN(C1CCC(=O)NC1=O)C2=O)C1CC(F)(F)C1` (single isomer, unassigned) [Example 137]: the “IKZF2 Dmax” value stood at 99% on IKZF2 [1] and 97% at IKZF2 [2]. Also, the DC50 on IKZF2 [1] was found to be 2 nM; on IKZF1 it was 54 nM; at IKZF2 [2], 1 nM. The Dmax at IKZF1 came to 34%.

As to `O=C1CCC(N2Cc3cc(C[C@H]4CCCC[C@@H]4NC4CCC(OC(F)(F)F)CC4)ccc3C2=O)C(=O)N1` (single isomer, unassigned) [Example 145], the Dmax at IKZF2 [1] turned out to be 100%; at IKZF1, 44%; at IKZF2 [2] it was 96%. Further, the DC50 is 4 nM on IKZF2 [1], 55 nM on IKZF1 and 2 nM at IKZF2 [2].

For `CC(N[C@H]1CCCO[C@@H]1Cc1ccc2c(c1F)CN(C1CCC(=O)NC1=O)C2=O)C1CCC1` (single isomer, unassigned) [Example 247], the values for the maximal degradation (Dmax) on IKZF2 [1] and at IKZF2 [2] were 95% and 97%, respectively. In addition, the DC50 on IKZF2 [1] was 4 nM; at IKZF1, greater than 1000 nM; at IKZF2 [2], 5 nM.

Regarding `CC(CC(F)(F)F)N[C@H]1CCCC[C@@H]1Cc1ccc2c(c1)CN(C1CCC(=O)NC1=O)C2=O` (single isomer, unassigned) [Example 250], the values for the Dmax at IKZF2 [1] and on IKZF1 were 100% and 30%, respectively. The DC50 was determined as 4 nM at IKZF2 [1], 117 nM on IKZF1 and 2 nM on IKZF2 [2]. Besides, at IKZF2 [2], the “IKZF2 Dmax” value is 97%.

As for `COCC1CCC(N[C@H]2CCCC[C@@H]2Cc2ccc3c(c2)CN(C2CCC(=O)NC2=O)C3=O)CC1` (single isomer, unassigned) [Example 251], the Dmax on IKZF2 [1] is 98%; at IKZF1, 35%; at IKZF2 [2], 98%. The DC50 at IKZF2 [1] came to 2 nM; at IKZF1 it was 213 nM; at IKZF2 [2] it was 1 nM.

On to `COCC1CCC(N[C@H]2CCCC[C@@H]2Cc2ccc3c(c2)CN(C2CCC(=O)NC2=O)C3=O)CC1` (single isomer, unassigned) [Example 252], for which, on IKZF2 [1], the “IKZF2 Dmax” value is reported as 97% and the DC50 stood at 1 nM. Also, at IKZF1, the DC50 stood at 105 nM and the “IKZF1 Dmax” value turned out to be 31%. In addition, on IKZF2 [2], the DC50 is 3 nM and the “IKZF2 Dmax” value worked out at 98%.

For the compound `O=C1CCC(N2Cc3cc(C[C@H]4CCCC[C@@H]4NC4CC5CC5C4)ccc3C2=O)C(=O)N1` (single isomer, unassigned) [Example 266], the Dmax was 98% at IKZF2 [1], 32% at IKZF1 and 97% on IKZF2 [2]. Besides, the DC50 at IKZF2 [1] amounted to 6 nM; at IKZF1, 55 nM; on IKZF2 [2] it was 4 nM.

Consider `N#CC1CCC(N[C@H]2CCCC[C@@H]2Cc2ccc3c(c2)CN(C2CCC(=O)NC2=O)C3=O)CC1` (single isomer, unassigned) [Example 267], for which the Dmax worked out at 97% at IKZF2 [1], 44% on IKZF1 and 98% on IKZF2 [2]. Further, the DC50 at IKZF2 [1] is 2 nM; at IKZF1, 109 nM; at IKZF2 [2], 4 nM.

On to `O=C1CCC(N2Cc3cc(C[C@H]4CCCC[C@@H]4NC4CCC5(CC4)CC5(F)F)ccc3C2=O)C(=O)N1` (single isomer, unassigned) [Example 272], for which, on IKZF2 [1], the Dmax was found to be 97% and the DC50 is 2 nM. On IKZF1, the DC50 worked out at 40 nM and the “IKZF1 Dmax” value was determined as 54%. At IKZF2 [2], the DC50 turned out to be 1 nM and the “IKZF2 Dmax” value was found to be 98%.

`COC1CCC(N[C@H]2CCCC[C@@H]2Cc2ccc3c(c2)CN(C2CCC(=O)NC2=O)C3=O)CC1` (single isomer, unassigned) [Example 277]: the Dmax on IKZF2 [1] was found to be 95%; on IKZF1 it was 37%; at IKZF2 [2] it was 98%. Moreover, the DC50 at IKZF2 [1] was 2 nM; at IKZF1, 114 nM; at IKZF2 [2], 3 nM.

Consider `O=C1CCC(N2Cc3cc(C[C@H]4CCCC[C@@H]4NC4CCC5(CC5)C4)ccc3C2=O)C(=O)N1` (single isomer, unassigned) [Example 281], for which the Dmax was 98% on IKZF2 [1], 30% on IKZF1 and 96% at IKZF2 [2]. Also, the DC50 at IKZF2 [1] was 5 nM; at IKZF1 it was 43 nM; on IKZF2 [2] it was 2 nM.

For the compound `CC(N[C@H]1CCCC[C@@H]1Cc1ccc2c(c1F)CN(C1CCC(=O)NC1=O)C2=O)C1CCOCC1` (single isomer, unassigned) [Example 288], on IKZF2 [1], the “IKZF2 Dmax” value came to 92% and the DC50 was determined as 5 nM. Besides, at IKZF1, the DC50 is 399 nM and the “IKZF1 Dmax” value was found to be 32%. Moreover, on IKZF2 [2], the DC50 turned out to be 6 nM and the “IKZF2 Dmax” value came to 97%.

As for `CCC(C)N[C@H]1CCCC[C@@H]1Cc1ccc2c(c1)CN(C1CCC(=O)NC1=O)C2=O` (single isomer, unassigned) [Example 299], the Dmax at IKZF2 [1] is 96%; on IKZF2 [2] it was 98%. The DC50 on IKZF2 [1] is 2 nM; at IKZF1 it was greater than 1000 nM; at IKZF2 [2], 2 nM.

For the compound `CC(C)N[C@H]1CCCC[C@@H]1Cc1ccc2c(c1)CN(C1CCC(=O)NC1=O)C2=O` (stereo partly drawn) [Example 7, 3-(5-(((1R,2S)-2-(isopropylamino)cyclohexyl)methyl)-1-oxoisoindolin-2-yl)piperidine-2,6-dione], the results for the Dmax at IKZF2 [1], on IKZF1 and at IKZF2 [2] were 98%, 36% and 99%, respectively. The DC50 on IKZF2 [1] was determined as 2 nM; on IKZF1 it was 462 nM; at IKZF2 [2] it was 4 nM.

With `CCC(CC)N[C@H]1CCCC[C@@H]1Cc1ccc2c(c1)CN(C1CCC(=O)NC1=O)C2=O` (stereo partly drawn) [Example 23, 3-(1-oxo-5-(((1R,2S)-2-(pentan-3-ylamino)cyclohexyl)methyl)isoindolin-2-yl)piperidine-2,6-dione], the figures for the Dmax at IKZF2 [1], at IKZF1 and at IKZF2 [2] were 98%, 14% and 95%, respectively. For the same compound, the DC50 at IKZF2 [1] amounted to 6 nM; on IKZF1, 374 nM; on IKZF2 [2] it was 6 nM.

As for `O=C1CCC(N2Cc3cc(C[C@H]4CCCC[C@@H]4NCC4CC(F)(F)C4)ccc3C2=O)C(=O)N1` (stereo partly drawn) [Example 24, 3-(5-(((1R,2S)-2-(((3,3-difluorocyclobutyl)methyl)amino)cyclohexyl)methyl)-1-oxoisoindolin-2-yl)piperidine-2,6-dione], the Dmax at IKZF2 [1] came out at 89%; on IKZF1, 25%; on IKZF2 [2], 91%. The figures for the DC50 at IKZF2 [1], at IKZF1 and at IKZF2 [2] were 8 nM, 345 nM and 10 nM, respectively.

For the compound `O=C1CCC(N2Cc3cc(C[C@H]4CCCC[C@@H]4NC4CCC5(CC4)CC5)ccc3C2=O)C(=O)N1` (stereo partly drawn) [Example 28, 3-(1-oxo-5-(((1R,2S)-2-(spiro[2.5]octan-6-ylamino)cyclohexyl)methyl)isoindolin-2-yl)piperidine-2,6-dione], the results for the Dmax at IKZF2 [1], at IKZF1 and at IKZF2 [2] were 99%, 56% and 97%, respectively. The DC50 was 3 nM on IKZF2 [1], 327 nM at IKZF1 and 2 nM on IKZF2 [2].
